# According to article PMC8078842 (PLoS Neglected Tropical Diseases, 2021):
# Legend:
# [1] = In situ brain/choroid plexus perfusion (10 or 30 minutes) with capillary depletion; conditions: 30 min perfusion, not corrected for vascular space
# [2] = previously published data; cited from earlier work
substance,measurement,setting,value
[^3H(G)]pentamidine,RTISSUE/PLASMA% (mean ± SEM) of [^3H]pentamidine,"[1]; Cerebellum, 0.5% F68 + 15.7 nM pent",17.28 (± 3.54) %
same,RTISSUE/PLASMA% (mean ± SEM) of [^3H]pentamidine,"[1]; Cerebellum, Control (15.7 nM pent)",12.92 (± 1.10) %
same,RTISSUE/PLASMA% (mean ± SEM) of [^3H]pentamidine,"[1]; Choroid plexus, 0.01% F68 + 15.7 nM pent",835.26 (± 260.20) %
same,RTISSUE/PLASMA% (mean ± SEM) of [^3H]pentamidine,"[1]; Choroid plexus, 0.1% F68 + 15.7 nM pent",944.85 (± 235.90) %
same,RTISSUE/PLASMA% (mean ± SEM) of [^3H]pentamidine,"[1]; Choroid plexus, 0.5% F68 + 15.7 nM pent",1844.80 (± 493.51) %
same,RTISSUE/PLASMA% (mean ± SEM) of [^3H]pentamidine,"[1]; Choroid plexus, Control (15.7 nM pent)",1241.60 (± 92.86) %
same,RTISSUE/PLASMA% (mean ± SEM) of [^3H]pentamidine,"[1]; Corpus callosum, 0.01% F68 + 15.7 nM pent",2.02 (± 1.22) %
same,RTISSUE/PLASMA% (mean ± SEM) of [^3H]pentamidine,"[1]; Corpus callosum, 0.1% F68 + 15.7 nM pent",9.47 (± 0.94) %
same,RTISSUE/PLASMA% (mean ± SEM) of [^3H]pentamidine,"[1]; Corpus callosum, 0.5% F68 + 15.7 nM pent",15.72 (± 6.78) %
same,RTISSUE/PLASMA% (mean ± SEM) of [^3H]pentamidine,"[1]; Corpus callosum, Control (15.7 nM pent)",8.19 (± 1.97) %
same,RTISSUE/PLASMA% (mean ± SEM) of [^3H]pentamidine,"[1]; Frontal cortex, 0.01% F68 + 15.7 nM pent",9.00 (± 1.47) %
same,RTISSUE/PLASMA% (mean ± SEM) of [^3H]pentamidine,"[1]; Frontal cortex, 0.1% F68 + 15.7 nM pent",11.91 (± 1.35) %
same,RTISSUE/PLASMA% (mean ± SEM) of [^3H]pentamidine,"[1]; Frontal cortex, 0.5% F68 + 15.7 nM pent",17.54 (± 3.58) %
same,RTISSUE/PLASMA% (mean ± SEM) of [^3H]pentamidine,"[1]; Frontal cortex, Control (15.7 nM pent)",10.35 (± 0.84) %
same,RTISSUE/PLASMA% (mean ± SEM) of [^3H]pentamidine,"[1]; Hippocampus, 0.01% F68 + 15.7 nM pent",6.05 (± 1.20) %
same,RTISSUE/PLASMA% (mean ± SEM) of [^3H]pentamidine,"[1]; Hippocampus, 0.1% F68 + 15.7 nM pent",7.93 (± 1.20) %
same,RTISSUE/PLASMA% (mean ± SEM) of [^3H]pentamidine,"[1]; Hippocampus, 0.5% F68 + 15.7 nM pent",10.65 (± 2.55) %
same,RTISSUE/PLASMA% (mean ± SEM) of [^3H]pentamidine,"[1]; Hippocampus, Control (15.7 nM pent)",8.19 (± 0.30) %
same,RTISSUE/PLASMA% (mean ± SEM) of [^3H]pentamidine,"[1]; Homogenate (capillary depletion), 0.01% F68 + 15.7 nM pent",9.63 (± 0.93) %
same,RTISSUE/PLASMA% (mean ± SEM) of [^3H]pentamidine,"[1]; Homogenate (capillary depletion), 0.1% F68 + 15.7 nM pent",11.19 (± 1.62) %
same,RTISSUE/PLASMA% (mean ± SEM) of [^3H]pentamidine,"[1]; Homogenate (capillary depletion), 0.5% F68 + 15.7 nM pent",14.45 (± 3.93) %
same,RTISSUE/PLASMA% (mean ± SEM) of [^3H]pentamidine,"[1]; Homogenate (capillary depletion), Control (15.7 nM pent)",10.18 (± 0.92) %
same,RTISSUE/PLASMA% (mean ± SEM) of [^3H]pentamidine,"[1]; Hypothalamus, 0.01% F68 + 15.7 nM pent",8.90 (± 1.42) %
same,RTISSUE/PLASMA% (mean ± SEM) of [^3H]pentamidine,"[1]; Hypothalamus, 0.1% F68 + 15.7 nM pent",11.17 (± 1.42) %
same,RTISSUE/PLASMA% (mean ± SEM) of [^3H]pentamidine,"[1]; Hypothalamus, 0.5% F68 + 15.7 nM pent",18.73 (± 4.67) %
same,RTISSUE/PLASMA% (mean ± SEM) of [^3H]pentamidine,"[1]; Hypothalamus, Control (15.7 nM pent)",18.49 (± 4.17) %
same,RTISSUE/PLASMA% (mean ± SEM) of [^3H]pentamidine,"[1]; Occipital cortex, 0.01% F68 + 15.7 nM pent",8.80 (± 1.47) %
same,RTISSUE/PLASMA% (mean ± SEM) of [^3H]pentamidine,"[1]; Occipital cortex, 0.1% F68 + 15.7 nM pent",12.14 (± 1.62) %
same,RTISSUE/PLASMA% (mean ± SEM) of [^3H]pentamidine,"[1]; Occipital cortex, 0.5% F68 + 15.7 nM pent",15.85 (± 2.71) %
same,RTISSUE/PLASMA% (mean ± SEM) of [^3H]pentamidine,"[1]; Occipital cortex, Control (15.7 nM pent)",9.52 (± 1.08) %
same,RTISSUE/PLASMA% (mean ± SEM) of [^3H]pentamidine,"[1]; Pellet (capillary depletion), 0.01% F68 + 15.7 nM pent",18.16 (± 2.79) %
same,RTISSUE/PLASMA% (mean ± SEM) of [^3H]pentamidine,"[1]; Pellet (capillary depletion), 0.1% F68 + 15.7 nM pent",22.15 (± 4.44) %
same,RTISSUE/PLASMA% (mean ± SEM) of [^3H]pentamidine,"[1]; Pellet (capillary depletion), Control (15.7 nM pent)",16.45 (± 2.76) %
same,RTISSUE/PLASMA% (mean ± SEM) of [^3H]pentamidine,"[1]; Pineal gland, 0.01% F68 + 15.7 nM pent",341.30 (± 39.57) %
same,RTISSUE/PLASMA% (mean ± SEM) of [^3H]pentamidine,"[1]; Pineal gland, 0.1% F68 + 15.7 nM pent",342.95 (± 92.02) %
same,RTISSUE/PLASMA% (mean ± SEM) of [^3H]pentamidine,"[1]; Pineal gland, 0.5% F68 + 15.7 nM pent",525.94 (± 122.85) %
same,RTISSUE/PLASMA% (mean ± SEM) of [^3H]pentamidine,"[1]; Pineal gland, Control (15.7 nM pent)",664.25 (± 82.42) %
same,RTISSUE/PLASMA% (mean ± SEM) of [^3H]pentamidine,"[1]; Pituitary gland, 0.01% F68 + 15.7 nM pent",324.42 (± 44.06) %
same,RTISSUE/PLASMA% (mean ± SEM) of [^3H]pentamidine,"[1]; Pituitary gland, 0.1% F68 + 15.7 nM pent",434.10 (± 59.56) %
same,RTISSUE/PLASMA% (mean ± SEM) of [^3H]pentamidine,"[1]; Pituitary gland, 0.5% F68 + 15.7 nM pent",881.90 (± 170.25) %
same,RTISSUE/PLASMA% (mean ± SEM) of [^3H]pentamidine,"[1]; Pituitary gland, Control (15.7 nM pent)",394.51 (± 52.42) %
same,RTISSUE/PLASMA% (mean ± SEM) of [^3H]pentamidine,"[1]; Pons, 0.01% F68 + 15.7 nM pent",17.61 (± 3.70) %
same,RTISSUE/PLASMA% (mean ± SEM) of [^3H]pentamidine,"[1]; Pons, 0.1% F68 + 15.7 nM pent",20.36 (± 3.70) %
same,RTISSUE/PLASMA% (mean ± SEM) of [^3H]pentamidine,"[1]; Pons, 0.5% F68 + 15.7 nM pent",20.43 (± 5.67) %
same,RTISSUE/PLASMA% (mean ± SEM) of [^3H]pentamidine,"[1]; Pons, Control (15.7 nM pent)",15.16 (± 1.48) %
same,RTISSUE/PLASMA% (mean ± SEM) of [^3H]pentamidine,"[1]; Supernatant (capillary depletion), 0.01% F68 + 15.7 nM pent",3.77 (± 0.94) %
same,RTISSUE/PLASMA% (mean ± SEM) of [^3H]pentamidine,"[1]; Supernatant (capillary depletion), 0.1% F68 + 15.7 nM pent",6.63 (± 0.52) %
same,RTISSUE/PLASMA% (mean ± SEM) of [^3H]pentamidine,"[1]; Supernatant (capillary depletion), 0.5% F68 + 15.7 nM pent",6.45 (± 1.35) %
same,RTISSUE/PLASMA% (mean ± SEM) of [^3H]pentamidine,"[1]; Supernatant (capillary depletion), Control (15.7 nM pent)",5.54 (± 0.37) %
same,RTISSUE/PLASMA% (mean ± SEM) of [^3H]pentamidine,"[1]; Thalamus, 0.01% F68 + 15.7 nM pent",7.99 (± 1.06) %
same,RTISSUE/PLASMA% (mean ± SEM) of [^3H]pentamidine,"[1]; Thalamus, 0.1% F68 + 15.7 nM pent",11.08 (± 1.06) %
same,RTISSUE/PLASMA% (mean ± SEM) of [^3H]pentamidine,"[1]; Thalamus, 0.5% F68 + 15.7 nM pent",13.52 (± 3.10) %
same,RTISSUE/PLASMA% (mean ± SEM) of [^3H]pentamidine,"[1]; Thalamus, Control (15.7 nM pent)",9.94 (± 1.95) %
same,"Accumulation corrected for vascular space, hippocampus",[2],4.3%
same,"Accumulation corrected for vascular space, hypothalamus",[2],7.6%
same,"Accumulation corrected for vascular space, pons",[2],8.2%
